# Assay results published in article PMC5504166, “Rosmarinic Acid Protects against Inflammation and Cardiomyocyte Apoptosis during Myocardial Ischemia/Reperfusion Injury by Activating Peroxisome Proliferator-Activated Receptor Gamma” (Frontiers in Pharmacology, 2017).
# Legend:
# PPARγ = molecular target: T1, PPARγ (Homo sapiens, UniProt P37231); assay: PolarScreen PPAR Gamma Competitor Assay, Green (fluorescence polarization competition); type: binding; details: read-out: EC50 (mean ± SD μM)
# T1 construct: gene PPARG
# T1 sequence (P37231 1-505): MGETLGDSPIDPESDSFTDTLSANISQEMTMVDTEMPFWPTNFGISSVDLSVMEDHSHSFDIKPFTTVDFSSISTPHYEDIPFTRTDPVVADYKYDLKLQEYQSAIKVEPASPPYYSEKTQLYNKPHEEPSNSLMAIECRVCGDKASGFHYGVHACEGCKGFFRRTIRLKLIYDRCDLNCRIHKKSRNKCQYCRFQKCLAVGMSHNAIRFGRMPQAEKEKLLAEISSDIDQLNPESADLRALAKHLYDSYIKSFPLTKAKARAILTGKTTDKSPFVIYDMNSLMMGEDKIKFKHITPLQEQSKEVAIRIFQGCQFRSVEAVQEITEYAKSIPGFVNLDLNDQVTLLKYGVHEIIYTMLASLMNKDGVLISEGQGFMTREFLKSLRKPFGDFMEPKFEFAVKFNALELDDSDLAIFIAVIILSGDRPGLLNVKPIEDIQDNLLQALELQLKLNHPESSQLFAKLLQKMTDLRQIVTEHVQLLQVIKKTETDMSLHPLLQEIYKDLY
# [1] = molecular target: T2, PTGS2/COX2 (Prostaglandin G/H synthase 2) (Ovis aries, UniProt P79208); assay: Colorimetric COX (ovine) inhibitor screening assay kit (Cayman); type: biochemical; details: read-out: IC50 (mean ± SD μM)
# T2 sequence (P79208 17-603): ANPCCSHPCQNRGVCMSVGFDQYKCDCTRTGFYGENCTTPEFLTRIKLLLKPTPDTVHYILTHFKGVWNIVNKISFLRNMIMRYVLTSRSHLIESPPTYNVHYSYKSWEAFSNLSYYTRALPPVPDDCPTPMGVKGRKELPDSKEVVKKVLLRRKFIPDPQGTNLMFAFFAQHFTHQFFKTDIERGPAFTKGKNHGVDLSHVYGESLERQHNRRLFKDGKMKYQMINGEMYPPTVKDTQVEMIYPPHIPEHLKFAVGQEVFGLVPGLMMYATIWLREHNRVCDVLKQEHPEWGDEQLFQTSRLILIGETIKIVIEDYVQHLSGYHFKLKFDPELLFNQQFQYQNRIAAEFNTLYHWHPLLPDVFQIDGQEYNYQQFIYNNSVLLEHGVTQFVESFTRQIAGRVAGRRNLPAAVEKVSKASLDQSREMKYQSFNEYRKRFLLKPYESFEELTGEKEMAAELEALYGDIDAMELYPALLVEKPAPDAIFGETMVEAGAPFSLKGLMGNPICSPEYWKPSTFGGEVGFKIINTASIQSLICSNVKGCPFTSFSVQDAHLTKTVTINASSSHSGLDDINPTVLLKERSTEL
smiles,measurement,setting,value
"O=C(/C=C/c1ccc(O)c(O)c1)O[C@H](Cc1ccc(O)c(O)c1)C(=O)O [RosA, Rosmarinic acid]",EC50,PPARγ,55.8 ± 3.45 µM
same,IC50,[1],170 ± 9.18 µM
